According to PubChem BioAssay AID504726 (Broad Institute, 2011):
The source made the active and inactive calls.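 The calls were made as follows: active = fitted half-maximal concentration for a cytotoxic signal drop no higher than ten times the top valid dose tested; inconclusive = flat curve between -70 and -30 percent, or an unreliable fit; inactive = flat within 30 percent, signal rise, or potency beyond limit.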

Experiment: HeLa cell cytotoxicity, dose response, cytotoxicity control, 24 h, cherry-picked samples (AID 504726);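 also: 0% = DMSO neutral controls and -100% = mitoxantrone positive controls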
Settings: HeLa viability, CellTiter-Glo ATP luminescence, 24 h; at 35 µM (top of the series)

Compound | activity change, negative = cytotoxicity
COc1cc(O)c(C(C)=O)c(CC(=O)O)c1 | -0.718% (inactive)
CC(C)(C)OC(=O)C[C@@H]1C/C=C\C[C@H](CC(=O)N(CCO)Cc2ccccc2)C(=O)N[C@@H](c2ccccc2)COC1=O | -9.09% (inactive)
O=C(O)c1ccc(NS(=O)(=O)c2ccc3c(c2)C2C=CCC2C(c2ccccc2F)N3)cc1 (centres undefined) | -8.24% (inactive)
Nc1ccc(C(=O)Nc2ccc3c(O)cc(S(=O)(=O)O)cc3c2)cc1 | -4.38% (inactive)
Cc1cccc(N2C(=O)c3cccc4c(N)ccc(c34)C2=O)c1 | 3.39% (inactive)
Oc1ccc2nnc3c(Br)cnn3c2c1 | -12.1% (inactive)
CC(C)=C[C@@H]1C[C@H](C)[C@H]2CC[C@H](C)c3c(O[C@@H]4O[C@@H](C)[C@@H](O)[C@@H](O)[C@@H]4O)c(O)c(C)c1c32 | -5.47% (inactive)
CCNc1nc(NC(C)C)nc(NS(=O)(=O)c2ccc(N)cc2)n1 | -6.72% (inactive)
Cc1cc2nc3c(=O)n(C4CCCCC4)c(=O)[nH]c3nc2cc1N | 4.62% (inactive)
Cc1ccccc1NC(=O)CN1C(=O)N/C(=C\c2cccn2-c2cccc(C(=O)O)c2)C1=O | -8.21% (inactive)
O=C(OCC(=O)N1N=C(c2ccc(Cl)cc2)CC1c1ccco1)c1cccnc1 (centres undefined) | -11.7% (inactive)
Cc1cc(C(F)(F)F)c2c(N)c(C(=O)Nc3cc(C)on3)sc2n1 | -0.48% (inactive)
CC1CC(C)(C)NC(=S)N1CC(=O)N(C)Cc1ccccc1 (centres undefined) | -2.63% (inactive)
O=C(CCNc1ccc(Cc2ccncc2)cc1)c1cccc([N+](=O)[O-])c1 | -10% (inactive)
O=C(CSc1cccc2cccnc12)N/N=C/c1ccc(O)cc1 | 0.069% (inactive)
COC(=O)c1cccc(COC(=O)c2ccccc2NC(=O)c2ccco2)c1 | -11.1% (inactive)
Cc1cc(NC(=O)CSc2nnc(COc3cccc(C)c3C)n2C)no1 | 6.24% (inactive)
Cc1cc(Cl)ccc1N1C(=O)CC(NNC(=O)c2cccnc2)C1=O (centres undefined) | 5.15% (inactive)
CCCCc1ccc(C(=O)O)nc1 | -11.4% (inactive)
Clc1ccc(-c2nnc3sc(-c4ccc(Br)o4)nn23)cc1 | -3.6% (inactive)
COc1ccc(C(=O)OCC(=O)NC2CC2)cc1S(=O)(=O)Nc1ccc(C)cc1 | 3.27% (inactive)

Compound | activity change, negative = cytotoxicity
Cc1cc[n+](-c2[nH]c(=O)sc2/C=N/N=C(\[O-])c2ccccc2)cc1C | -3.68% (inactive)
O=C(CSc1nc2ccccc2[nH]1)Nc1cccc(S(=O)(=O)N2CCOCC2)c1 | 3.94% (inactive)
Cc1cc(/C=C2\C(=O)NC(=O)N(Cc3ccccc3)C2=O)c(C)n1-c1ccc(Cl)c(C(=O)O)c1 | 1.64% (inactive)
C=CCOC(=O)C1=C[C@H](c2csc3ccccc23)C[C@H](OCc2ccc(CO)cc2)O1 | -9.53% (inactive)
Nc1nc(-c2ccc(C(=O)O)cc2)cs1 | -2% (inactive)
CCOc1ccc(-n2c(Cc3cc(=O)[nH]c(=O)[nH]3)nnc2SCc2cccnc2)cc1 | -1.5% (inactive)
CCc1ccc(C2CC(c3cccc(Cl)c3)n3nc(N)nc3N2)cc1 (centres undefined) | -1.95% (inactive)
OCCN(CCO)c1nc(N2CCCCC2)c2nc(N(CCO)CCO)nc(N3CCCCC3)c2n1 | -1.48% (inactive)
COc1cc(OC)cc(-c2c(-c3ccsc3)c3cc(Br)ccc3n2C)c1 | -23.6% (inactive)
CCOc1ccc(/C=C2\CCCc3c2nc2ccccc2c3C(=O)O)cc1OC | -5% (inactive)
CS(=O)(=O)c1cccc(C(=O)Oc2ccccc2)c1 | 5.26% (inactive)
Cc1c(Cl)cccc1NS(=O)(=O)c1ccc2c(c1)C1C=CCC1C(c1ccc(C(=O)O)cc1)N2 (centres undefined) | -10.8% (inactive)
Cc1cc(=O)c2c([nH]1)c(C)cc1[nH]c(C)c(C)c12 | -3.16% (inactive)
O=C1/C(=C/c2ccco2)SC(=S)N1c1cccnc1 | -6.8% (inactive)
O=C(Nc1ccc(Br)cn1)c1cccc2ccccc12 | -12.4% (inactive)
CC(C)CN(C(=O)CSc1nncn1C)C1CCS(=O)(=O)C1 (centres undefined) | 4.85% (inactive)
O=C(O)Cc1c[nH]c2cccc(O)c12 | -14.7% (inactive)
CCC(C)[C@H](NC(=O)[C@@H]1Cc2ccccc2CN1)C(=O)Nc1ccc2c(c1)OCO2 (some centres undefined) | -9.19% (inactive)
CCOc1ccc(S(=O)(=O)N(C)c2ccc(OCC(=O)NC3=NCCS3)cc2)cc1 | -12.3% (inactive)
Cc1ccc(NS(=O)(=O)c2ccc(C(=O)NCCCN3CCCC3=O)cc2)cc1 | -5.92% (inactive)
CCOC(=O)C1=C(O)/C(=C/c2cc(C)n(-c3ccccc3)c2C)N=C1C | 3.92% (inactive)

Compound | activity change, negative = cytotoxicity
COc1cccc(NC(=S)N2CCN(C(c3ccccc3)c3ccccc3)CC2)c1 | -2.14% (inactive)
Cc1cc2nc(SCCN3CCOCC3)[nH]c2cc1C | -23.1% (inactive)
O=C(O)CCCCCn1c(SCC(=O)c2ccc(O)c(O)c2)nc2ccsc2c1=O | -16.5% (inactive)
O=C(c1coc(=O)c(Br)c1)N1CCCc2ccccc21 | -15% (inactive)
CN(c1ccccc1)S(=O)(=O)c1cccc(NS(=O)(=O)c2cccc(C(=O)O)c2)c1 | 3.74% (inactive)
CC(=O)NC(C(=O)c1ccccc1)C(=O)c1ccccc1 | 7.04% (inactive)
O=C(NCC1CCCO1)c1cccc(S(=O)(=O)N(Cc2ccccc2)c2ccccc2)c1 (centres undefined) | -6.52% (inactive)
O=C(O)c1ccccc1C1=Nc2ccc(O)cc2Oc2cc(O)ccc21 | -3.9% (inactive)
COc1c2c(nc3occc13)C(CCC(C)(C)O)(OC)C(O)CC2 (centres undefined) | -4.6% (inactive)
O=C(O)/C(=C\c1cccs1)Sc1nnc(-c2ccc(F)cc2)o1 | 0.075% (inactive)
O=C(CN1CC[C@@]2(O)CCCC[C@H]2[C@@H]1c1ccc(F)cc1)NCc1ccco1 | -5.52% (inactive)
Cc1cc(C)n(CCC(=O)N/N=C/c2ccc(O)cc2O)n1 | -6.35% (inactive)
O=c1nc(N2CCOCC2)ccn1-c1nc(-c2ccccc2)sc1-c1ccccc1 | -8.43% (inactive)
CC(C(=O)O)N1C(=O)/C(=C/C=C/c2ccco2)SC1=S (centres undefined) | -13.5% (inactive)
O=C1C(=Cc2ccco2)CCC1=Cc1ccco1 | -6.04% (inactive)
CCOC(=O)C1Nc2ccccc2C2C(O)C(O)CC12 (centres undefined) | 7.37% (inactive)
NC(=S)COc1ccccc1 | -7.95% (inactive)
C=CCNC(=O)c1cn(CC)c2cc(N3CCN(C(=O)c4ccco4)CC3)c(F)cc2c1=O | 6.14% (inactive)
Cc1c(NC(=O)CCC2CCCCC2)cc(C(=O)N2CCOCC2)cc1[N+](=O)[O-] | 0.409% (inactive)
CNc1ccc2c3c(cccc13)C(=O)N(C)C2=O | -12.7% (inactive)
COc1cccc(NC(=O)CN(C)C(=O)c2cc3ccccc3cc2OC)c1 | 6.23% (inactive)

Compound | activity change, negative = cytotoxicity
NC1=NC[C@@H](Cc2ccc(O)cc2)N1CCc1cc(C(F)(F)F)cc(C(F)(F)F)c1 | -9.29% (inactive)
O=C(CN1CCN(C(=O)CNC(=O)c2ccc3c(c2)OCO3)CC1)Nc1ccc(F)cc1 | -9.87% (inactive)
COc1ccc(Cl)cc1C(=O)NNC(=O)c1cc2ccccc2o1 | -3.35% (inactive)
COc1ccc(NS(=O)(=O)c2ccc3c(c2)[C@H]2C=CC[C@H]2[C@@H](c2ccc(C(=O)O)cc2)N3)cc1 | -3.11% (inactive)
O=C(NC12CC3CC(CC(C3)C1)C2)N1CCN(c2ncccn2)CC1 | 12.9% (inactive)
COc1ccc(OCC(=O)N2CCN(c3cccc(C(F)(F)F)c3)CC2)cc1 | -8.78% (inactive)
Cc1c(C)n(CCC(=O)O)c2ccccc12 | -6.21% (inactive)
CCc1cc[n+](-c2nc([O-])sc2C=O)cc1 | 0.003% (inactive)
COc1ccccc1C(=O)NCC(=O)OCC(=O)N(CC(C)C)c1c(N)n(Cc2ccccc2)c(=O)[nH]c1=O | 1.22% (inactive)
CCOC(=O)C1CCCN(C(=O)C2c3ccccc3Oc3ccccc32)C1 (centres undefined) | -6.62% (inactive)
COC(=O)C1CCN(C(=O)COC(=O)Cc2c[nH]c3ccccc23)CC1 | -20.6% (inactive)
CCOC(=O)c1ccc[n+](CC(=O)c2ccc(OC)cc2)c1 | -1.73% (inactive)
CCN(CC)c1ccc2cc(S(=O)(=O)c3ccc(Cl)cc3)c(=O)oc2c1 | -13.6% (inactive)
O=C(NC1CCCCC1)c1cc([N+](=O)[O-])ccc1N1CCOCC1 | -0.855% (inactive)
Cc1ccccc1N1C(=O)c2cccc3c(N(C)CCO)ccc(c23)C1=O | -13.3% (inactive)
O=C(O)c1ccc(-n2cccc2/C=C2/NC(=O)N(c3cccc(Cl)c3)C2=O)cc1 | -3.84% (inactive)
O=c1ccc2cc3c4c(c2o1)CCCN4CCC3 | -19.7% (inactive)
CCOC(=O)C1C2C=CC3(CN(c4cccc(Cl)c4)C(=O)C13)O2 (centres undefined) | -5.58% (inactive)
CC(C)(C)OC(=O)N1CCC[C@H]1c1nnc(SCc2cccc(Cl)c2)o1 | -8.06% (inactive)
O=C(CN1C(=O)/C(=C/c2ccco2)SC1=S)Nc1ccc(C(=O)O)c(O)c1 | -0.625% (inactive)
Nc1ccccc1C(=O)N1O[C@@H]2C=C[C@H]1CC2 | -9.71% (inactive)
